PMC7843569, “Metagenomic identification, purification and characterisation of the Bifidobacterium adolescentis BgaC β-galactosidase” (Applied Microbiology and Biotechnology, 2021)

Key:
[1] = target: T1, BgaC β-galactosidase (BAD_1582) (Bifidobacterium adolescentis, UniProt A1A3T0); test: purified enzyme hydrolysis, specific activity, absorbance at […] nm; TLC; format: biochemical
[2] = target: T1, BgaC β-galactosidase (BAD_1582); test: purified enzyme; glucose-release kinetics (Km […]) and competitive inhibition of ONPG hydrolysis; format: biochemical
purified protein = substrate: O=[N+]([O-])c1ccccc1O[C@@H]1O[C@H](CO)[C@H](O)[C@H](O)[C@H]1O; test: purified protein; details: divalent metal ion (Mg2+ gives maximum activity) enzyme active site

O=[N+]([O-])c1ccc(O[C@@H]2O[C@H](CO)[C@H](O)[C@H](O)[C@H]2O)cc1 [pNPG]
purified enzyme hydrolysis, specific activity, absorbance at 420 nm; TLC [1]: 112 µmol/min/mg

OC[C@H]1O[C@@H](O[C@H]2[C@H](O)[C@@H](O)C(O)O[C@@H]2CO)[C@H](O)[C@@H](O)[C@H]1O (stereo partly drawn) [lactose]
Ki [2]: 100 µM

B1: BgaC β-galactosidase (BAD_1582) (Bifidobacterium adolescentis ATCC 15703) (protein)
chain: MADTAELAIVHATTASASWLTDPTVFAANRKPAHSSHRYVIGETREPKQSLDGEWKVRIEQARNVDVESAPFAAVDFEDGDFGAIEVPGHLQMAGYLKNKYVNIQYPWDGHEDPQAPNIPENNHVAIYRRRFALDAQLARTLENDGTVSLTFHGAATAIYVWLDGTFVGYGEDGFTPSEFDVTEALRNGNGNAADSPEAEHTLTVACYEYSSASWLEDQDFWRLHGLFRTVELAAQPHTHVETVQLEADYTAADTAGTADTAELNAALTLRNPADAMTIESTLRDGDGNVVWESTQACNGEIALNSGKMTNIAPWSAESPTLYTLTVRVVGHDGAIIETVTQKIGFRTFRIENGIMTINGKRIVFKGADRHEFDAKRGRAITREDMLSDVVFCKRHNINAIRTSHYPNQEYWYDLCDEYGLYLIDETNMETHGTWVANNVERPEDGIPGSRPEWEGACVDRINSMMRRDYNHPSVLIWSLGNESSAGEVFRAMYRHAHTIDPNRPVHYEGSVHMREFEDVTDIESRMYAHADEIERYLNDGSPAHTDGPKKPYISCEYMHAMGNSCGNMDEYTALERYPMYQGGFIWDFIDQAIETKLPDGTTRMCYGGDFGDRPSDYEFSGDGLLFADRTPSPKAQEVKQLYANVKIAVSVDEARITNDNLFVSTGDYRFVLRILADGKPVWSTTRRFDVAAGESASFEVDWPVDDYRSNAEELVLEVSQQLGNACDWAPAGYELAFGQCVVAGAKTTADAVDAAGAPADGTVTLGRWNAGVRGQGREALFSRTQGGMVSYTFGEREFVLRRPSITTFRPLTDNDRGAGHAFERAAWAVAGKYARCVDCAIANRGENAVEATYTYELAIPQRTKVTVRYVADTAGLVSLDVEYPGEKNGDLPTIPAFGIEWALPVEYANLRFYGAGPEETYADRRHAKLGVWSTTAGDDCAPYLLPQETGNHEDVRWAEITDDSGHGVRVKRGAGAKPFAMSLLPYSSTMLEEALHQDELPKPRHMFLRLLAAQMGVGGDDSWMSPVHEQYQLPADQPLSLNVQLKLF
Km (purified protein): 2500 µM
